Laboratory results taken from ChEMBL document CHEMBL2311460, “Synthesis and antiplasmodial activity of some 1-azabenzanthrone derivatives” (Bioorg Med Chem Lett, 2013).

Legend:
[1] = Selectivity index, ratio of IC50 for human MRC5 cells to IC50 for chloroquine-resistant Plasmodium falciparum FCR-3; format: toxicity, cell-based; details: read-out: Ratio IC50
MRC5 = experiment: Cytotoxicity against human MRC5 cells; format: cell-based
Plasmodium falciparum = experiment: Antiplasmodial activity against chloroquine-resistant Plasmodium falciparum FCR-3 infected in human A positive erythrocytes by [3H]-hypoxanthine incorporation assay; format: functional, organism-based; details: FCR-3/Gambia

COc1cc2c3c(nccc3c1Br)-c1ccccc1C2=O
selectivity ratio [1]: > 1.99 | IC50 (MRC5): > 100 µM | IC50 (Plasmodium falciparum): 52 µM

COc1cc2c3c(nccc3c1)-c1ccccc1C2=O
selectivity ratio [1]: > 15.6 | IC50 (MRC5): > 100 µM | IC50 (Plasmodium falciparum): 6.4 µM

COc1cc2c3c(nccc3c1N)-c1ccccc1C2=O
selectivity ratio [1]: 0.37 | IC50 (MRC5): 37 µM | IC50 (Plasmodium falciparum): 100 µM

O=C1c2ccccc2-c2ncc(Br)c3cccc1c23
selectivity ratio [1]: > 0.38 | IC50 (MRC5): > 100 µM | IC50 (Plasmodium falciparum): 260 µM

COc1cc2c3c(c1)C(=O)c1ccccc1C3=NCC2
selectivity ratio [1]: 32.4 | IC50 (MRC5): 81.3 µM | IC50 (Plasmodium falciparum): 2.5 µM

COc1cc2c3c(ncc(Br)c3c1)-c1ccccc1C2=O
selectivity ratio [1]: 0.13 | IC50 (MRC5): 28.9 µM | IC50 (Plasmodium falciparum): 220 µM

COc1cc2ccnc3c2c(c1O)C(=O)c1ccccc1-3
selectivity ratio [1]: 1.27 | IC50 (MRC5): 65.1 µM | IC50 (Plasmodium falciparum): 51 µM

O=C1c2ccccc2-c2nccc3cccc1c23
selectivity ratio [1]: 0.18 | IC50 (MRC5): 41.6 µM | IC50 (Plasmodium falciparum): 230 µM

COc1cc2ccnc3c2c(c1[N+](=O)[O-])C(=O)c1ccccc1-3
selectivity ratio [1]: 1.42 | IC50 (MRC5): 80 µM | IC50 (Plasmodium falciparum): 56 µM

COc1cc2ccnc3c2c(c1N)C(=O)c1ccccc1-3 [LAKSHMININE]
selectivity ratio [1]: 0.18 | IC50 (MRC5): 17.9 µM | IC50 (Plasmodium falciparum): 100 µM

COc1cc2ccnc3c2c(c1OC)C(=O)c1ccccc1-3
selectivity ratio [1]: 0.68 | IC50 (MRC5): 50.5 µM | IC50 (Plasmodium falciparum): 74 µM

COc1cc2c3c(nccc3c1[N+](=O)[O-])-c1ccccc1C2=O
selectivity ratio [1]: 0.49 | IC50 (MRC5): 10.2 µM | IC50 (Plasmodium falciparum): 21 µM
